The values that follow come from patent US20040018210A1, “Cholesterol-lowering agent” (priority 2001, published 2004).

This assay has as its system T9A4 human hepatic cells. The experiment in a line: In vitro analysis of the hypocholesterolaemic effect: de novo synthesis of cholesterol measured by incorporation of C14-acetate. Format: cell-based. The note with it: main purified oxylanosterol molecules. How it is done:
In the present context, the hypocholesterolaemic effect of the present product is evaluated in a qualitative manner on the model of T9A4 human hepatic cells cultured in vitro. Although it is known that such results cannot be transferred directly to man in vivo, they nevertheless provide useful indications. The hypocholesterolaemic effect is evaluated by measurement of the de novo synthesis of cholesterol on human hepatic cells in culture by measuring the incorporation of C^14-acetate. A means of evaluation of this de novo synthesis is described in a method presented below.
T9A4 human hepatic cells are grown on LCM medium (Biofluids, Rockville, Md.) at 37° C. under 3.5% CO2. The cells are seeded in 24-well culture boxes and incubated to confluence with 1 mM C14-acetate (1 mCi/mol, Amersham) for 20 hours in the absence (control) or in the presence of the extract rich in oxygenated derivatives of lanosterol obtained from fungi and/or purified fractions, dissolved in methanol.
A lipid extraction is carried out by incubation in a hexane:isopropanol (3:2) mixtures for 30 minutes at ambient temperature. The extract is then dried under nitrogen and then redissolved in hexane and subjected to thin layer high performance chromatography (Merck, Darmstadt, Germany) with a hexane:diethyl ether:acetic acid (75:25:1) mixture as the solvent. The cholesterol neosynthesis is determined by measuring the incorporation of C^14-acetate within the cholesterol with the aid of an imager (Camberra Packard, Zurich, Switzerland) and is expressed in % of the control.
ID50 represents the dose which inhibits the cholesterol synthesis by 50%. It can be seen that the various extracts have a considerable hypocholesterolaemic activity.

Regarding `C/C(=C\CC[C@@H](C)[C@H]1CC[C@@]2(C)C3=CC[C@H]4C(C)(C)[C@@H](O)CC[C@]4(C)C3=CC[C@]12C)C(=O)O` [Ganoderic acid Y], the ID50 is listed as 0.5 μq/ml.
Next, `C/C(=C\CC[C@@H](C)[C@H]1CC[C@@]2(C)C3=CC[C@H]4C(C)(C)[C@@H](O)CC[C@]4(C)C3=CC[C@]12C)CO` [Ganoderol B]: 10 μq/ml.
As for `C/C(C=O)=C\CC[C@@H](C)[C@H]1CC[C@@]2(C)C3=CC[C@H]4C(C)(C)C(=O)CC[C@]4(C)C3=CC[C@]12C` [Ganoderal A], the ID50 is 7 μq/ml.
The compound `C/C(=C\CC[C@@H](C)[C@H]1CC[C@@]2(C)C3=CC[C@H]4C(C)(C)C(=O)CC[C@]4(C)C3=CC[C@]12C)CO` [Ganoderol A] displayed an ID50 of 1 μq/ml.
